Reference: patent US7053070B2, “Pyrido[2,3-d]pyrimidine-2,7-diamine kinase inhibitors” (Warner-Lambert Company, priority 2000, dated 2006)
Where a name gives a salt, the structure may show the parent alone.

Assays:
cdk2/cyclinA = cdk2/cyclinA (Homo sapiens, UniProt P24941); experiment: Cyclin dependent kinase 2 assay (cdk2/cyclinA), 32P incorporation, filter plate; type: biochemical; conditions: retinoblastoma substrate, 12 mM ATP, 25° C., 15 minutes; read-out: Inhibition of Cdks: IC50 Cdk2/A
Protocol: (§1) Cyclin Dependent Kinase 1 and 2 Assays (cdk1/cyclinB, cdk2/cyclinA, cdk2/cyclinE)
(§2) Enzyme assays for IC50 determinations and kinetic evaluation are performed in a 96-well filter plate (Millipore MADVN6550) in a total volume of 0.1 mL of 20 mM TRIS (tris[hydroxymethyl]aminomethane), at pH 7.4, 50 mM NaCl, 1 mM dithiothreitol, 10 mM MgCl2, […] containing 0.25 μCi of [^32P]ATP, 20 ng of enzyme (either cdk1/B, cdk2/A, or cdk2E), 1 μg retinoblastoma and appropriate dilutions of the particular invention compound. All components except the ATP are added to the wells, and the plate is placed on a plate mixer for 2 minutes. The reaction is begun by addition of [^32P]ATP, and the plate is incubated at 25° C. for 15 minutes. The reaction is terminated by addition of 0.1 mL of 20% TCA. The plate is kept at 4° C. for at least 1 hour to allow the substrate to precipitate. The wells are then washed 5 times with 0.2 mL of 10% TCA and ^32P incorporation determined with a beta plate counter (Wallac Inc., Gaithersburg, Md.).

cdk2/cyclinE = cdk2/cyclinE (Homo sapiens, UniProt P24941); experiment: Cyclin dependent kinase 2 assay (cdk2/cyclinE), 32P incorporation, filter plate; type: biochemical; conditions: retinoblastoma substrate, 12 mM ATP, 25° C., 15 minutes; read-out: Inhibition of Cdks: IC50 Cdk2/E
Protocol: as §1, §2

cdk1/cyclinB = cdk1/cyclinB (Homo sapiens, UniProt P06493); experiment: Cyclin dependent kinase 1 assay (cdk1/cyclinB), 32P incorporation, filter plate; type: biochemical; conditions: retinoblastoma substrate, 12 mM ATP, 25° C., 15 minutes; read-out: Inhibition of Cdks: IC50 Cdk1/B
Protocol: as §1, §2

cdk4/cyclinD = cdk4/cyclinD (Homo sapiens, UniProt P11802); experiment: Cyclin Dependent Kinase 4 (cdk-4) Assay, 32P incorporation, filter plate; type: biochemical; conditions: retinoblastoma substrate, 25 μM ATP, 25° C., 15 minutes; read-out: Inhibition of Cdks: IC50 Cdk4D
Protocol: Cyclin Dependent Kinase 4 (cdk-4) Assay
Enzyme assays for IC50 determinations and kinetic evaluation are performed in 96-well filter plates (Millipore MADVN6550). The total volume is 0.1 mL containing a final concentration of 20 mM TRIS (tris[hydroxymethyl]aminomethane), at pH 7.4, 50 mM NaCl, 1 mM dithiothreitol, 10 mM MgCl2, 25 μM ATP containing 0.25 μCi of [^32P]ATP, 20 ng of cdk4, 1 μg of retinoblastoma, and appropriate dilutions of a compound of the present invention. All components except the ATP are added to the wells, and the plate is placed on a plate mixer for 2 minutes. The reaction is started by adding [^32P]ATP, and the plate is incubated at 25° C. for 15 minutes. The reaction is terminated by addition of 0.1 mL of 20% trichloroacetic acid (TCA). The plate is kept at 4° C. for at least 1 hour to allow the substrate to precipitate. The wells are then washed 5 times with 0.2 mL of 10% TCA and ^32P incorporation is determined with a beta plate counter (Wallac Inc., Gaithersburg, Md.).

Chain of cdk4/cyclinD (P11802 whole entry, species assumed): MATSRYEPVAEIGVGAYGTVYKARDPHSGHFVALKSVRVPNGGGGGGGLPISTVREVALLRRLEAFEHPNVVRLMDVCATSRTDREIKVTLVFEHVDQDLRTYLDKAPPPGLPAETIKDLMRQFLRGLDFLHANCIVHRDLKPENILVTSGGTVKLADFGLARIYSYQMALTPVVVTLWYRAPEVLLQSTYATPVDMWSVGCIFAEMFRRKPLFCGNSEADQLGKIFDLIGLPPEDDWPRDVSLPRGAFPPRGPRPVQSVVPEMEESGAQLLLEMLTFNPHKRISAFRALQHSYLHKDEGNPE
Chain of cdk4/cyclinD (P24385 whole entry partner, species assumed): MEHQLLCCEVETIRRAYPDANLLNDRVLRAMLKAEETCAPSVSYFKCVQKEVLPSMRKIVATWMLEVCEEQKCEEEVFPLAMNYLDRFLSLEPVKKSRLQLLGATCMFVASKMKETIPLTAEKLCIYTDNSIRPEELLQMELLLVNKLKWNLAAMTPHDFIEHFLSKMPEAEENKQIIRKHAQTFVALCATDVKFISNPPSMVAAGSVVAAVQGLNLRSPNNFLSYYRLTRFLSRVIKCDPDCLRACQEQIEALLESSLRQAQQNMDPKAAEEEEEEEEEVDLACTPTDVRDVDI
Chain of cdk1/cyclinB (P06493 whole entry, species assumed): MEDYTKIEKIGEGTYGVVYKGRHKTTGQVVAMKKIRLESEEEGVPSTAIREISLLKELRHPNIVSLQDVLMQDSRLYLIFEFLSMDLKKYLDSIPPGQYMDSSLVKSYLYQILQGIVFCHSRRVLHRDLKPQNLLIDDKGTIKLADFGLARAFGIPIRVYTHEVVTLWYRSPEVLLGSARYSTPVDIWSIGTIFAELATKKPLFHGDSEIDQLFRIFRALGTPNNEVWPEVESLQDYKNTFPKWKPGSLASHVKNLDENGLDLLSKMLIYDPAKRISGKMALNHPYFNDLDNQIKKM
Chain of cdk1/cyclinB (P14635 whole entry partner, species assumed): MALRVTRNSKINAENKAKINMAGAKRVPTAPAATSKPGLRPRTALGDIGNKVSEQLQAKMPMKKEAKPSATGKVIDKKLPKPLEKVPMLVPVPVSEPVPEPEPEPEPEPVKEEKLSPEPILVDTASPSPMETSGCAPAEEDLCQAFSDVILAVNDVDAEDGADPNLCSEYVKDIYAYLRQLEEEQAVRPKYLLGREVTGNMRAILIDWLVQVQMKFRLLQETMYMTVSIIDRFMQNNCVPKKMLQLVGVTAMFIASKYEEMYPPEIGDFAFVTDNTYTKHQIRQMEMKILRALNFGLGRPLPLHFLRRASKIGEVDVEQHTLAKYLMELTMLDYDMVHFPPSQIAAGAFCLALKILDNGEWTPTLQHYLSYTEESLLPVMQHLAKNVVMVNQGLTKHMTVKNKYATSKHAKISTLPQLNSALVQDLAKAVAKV

Row | Compound | IC50 (cdk2/cyclinA) [nM] | IC50 (cdk2/cyclinE) [nM] | IC50 (cdk1/cyclinB) [nM] | IC50 (cdk4/cyclinD) [nM] | melting point
1 | Cc1cc2cnc(Nc3ccc(N4C[C@@H](C)N[C@@H](C)C4)cc3)nc2nc1NC(=O)NC(C)C [Compound 119, 1-{2-[4-(cis-3,5-Dimethyl-piperazin-1-yl)-phenylamino]-6-methyl-pyrido[2,3-d]pyrimidin-7-yl}-3-isopropyl-urea] | > 5000 | > 5000 | > 5000 | 1600 | –
2 | CCc1cc2cnc(Nc3ccc(N4C[C@@H](C)N[C@@H](C)C4)cc3)nc2nc1NC(=O)NC(C)(C)C [Compound 121, 1-tert-Butyl-3-{2-[4-(cis-3,5-dimethyl-piperazin-1-yl)-phenylamino]-6-ethyl-pyrido[2,3-d]pyrimidin-7-yl}-urea] | > 5000 | > 5000 | > 5000 | 92 | –
3 | CCOC(=O)c1cc2cnc(Nc3ccc(N4CCNCC4)cc3)nc2nc1NC(=O)NC(C)(C)C [Compound 113, 7-(3-tert-Butyl-ureido)-2-(4-piperazin-1-yl-phenylamino)-pyrido[2,3-d]pyrimidine-6-carboxylic acid ethyl ester] | > 5000 | > 5000 | > 5000 | 3000 | –
4 | CCN(C(=O)NC1CCCCC1)c1ccc2cnc(Nc3ccc(N4CCNCC4)cc3)nc2n1 [Compound 107, 3-Cyclohexyl-1-ethyl-1-[2-(4-piperazin-1-yl-phenylamino)-pyrido[2,3-d]pyrimidin-7-yl]-urea] | 1950 | 1650 | 1730 | 19 | –
5 | C[C@@H]1CN(c2ccc(Nc3ncc4cc(Br)c(NC(=O)NC5CCCCC5)nc4n3)cc2)C[C@H](C)N1 [Compound 95, 1-{6-Bromo-2-[4-(cis-3,5-dimethyl-piperazin-1-yl)-phenylamino]-pyrido[2,3-d]pyrimidin-7-yl}-3-cyclohexyl-urea] | – | > 5000 | – | 310 | –
6 | CC(C)(C)NC(=O)Nc1ccc2cnc(Nc3ccc(N4CCNCC4)cc3)nc2n1 (as salt: salt) [Compound 1, 1-tert-Butyl-3-[2-(4-piperazin-1-yl-phenylamino)-pyrido[2,3-d]pyrimidin-7-yl]-urea] | – | – | – | – | 215 °C (dec.)
7 | C[C@@H]1CN(c2ccc(Nc3ncc4cc(Br)c(NC(=O)NC5CCCCC5)nc4n3)cc2)C[C@H](C)N1 (as salt: salt) [Compound 95, 1-{6-Bromo-2-[4-(cis-3,5-dimethyl-piperazin-1-yl)-phenylamino]-pyrido[2,3-d]pyrimidin-7-yl}-3-cyclohexyl-urea] | – | – | – | – | 198 °C (dec.)
8 | O=C(Nc1ccc2cnc(Nc3ccc(N4CCNCC4)cc3)nc2n1)NC1CCCC1 [Compound 51, 1-Cyclopentyl-3-[2-(4-piperazin-1-yl-phenylamino)-pyrido[2,3-d]pyrimidin-7-yl]-urea] | 24 | 30 | 53 | 4 | –
9 | CC1(C)CN(c2ccc(Nc3ncc4cc(F)c(NC(=O)NC5CCCCC5)nc4n3)cc2)CCN1 [Compound 100, 1-Cyclohexyl-3-{2-[4-(3,3-dimethyl-piperazin-1-yl)-phenylamino]-6-fluoro-pyrido[2,3-d]pyrimidin-7-yl}-urea] | 153 | 415 | 265 | 35 | –
10 | O=C(Nc1ccc2cnc(Nc3ccc(N4CCNCC4)cc3)nc2n1)NC1CCCC1 (as salt: salt) [Compound 51, 1-Cyclopentyl-3-[2-(4-piperazin-1-yl-phenylamino)-pyrido[2,3-d]pyrimidin-7-yl]-urea] | – | – | – | – | 210 to 213 °C (dec.)
11 | Cc1cc2cnc(Nc3ccc(N4C[C@@H](C)N[C@@H](C)C4)cc3)nc2nc1NC(=O)NC1CC1 [Compound 120, 1-Cyclopropyl-3-{2-[4-(cis-3,5-dimethyl-piperazin-1-yl)-phenylamino]-6-methyl-pyrido[2,3-d]pyrimidin-7-yl}-urea] | > 5000 | > 5000 | > 5000 | 1900 | –
12 | C[C@@H]1CN(c2ccc(Nc3ncc4cc(Br)c(NC(=O)NC(C)(C)C)nc4n3)cc2)C[C@H](C)N1 [Compound 94, 1-{6-Bromo-2-[4-(cis-3,5-dimethyl-piperazin-1-yl)-phenylamino]-pyrido[2,3-d]pyrimidin-7-yl}-3-tert-butyl-urea] | – | > 5000 | – | 101 | –
13 | CC(C)NC(=O)Nc1ccc2cnc(Nc3ccc(N4CCNCC4)cc3)nc2n1 (as salt: salt) [Compound 48, 1-Isopropyl-3-[2-(4-piperazin-1-yl-phenylamino)-pyrido[2,3-d]pyrimidin-7-yl]-urea] | – | – | – | – | 190 °C (dec.)
14 | CCN(C(=O)NC(C)(C)C)c1ccc2cnc(Nc3ccc(N4C[C@@H](C)N[C@@H](C)C4)cc3)nc2n1 [Compound 108, 3-tert-Butyl-1-{2-[4(cis-3,5-dimethyl-piperazin-1-yl)-phenylamino]-pyrido[2,3-d]pyrimidin-7-yl}-1-ethyl-urea] | 2030 | 3050 | 2420 | 67 | –
15 | CC(C)NC(=O)Nc1ccc2cnc(Nc3ccc(N4CCNCC4)cc3)nc2n1 [Compound 48, 1-Isopropyl-3-[2-(4-piperazin-1-yl-phenylamino)-pyrido[2,3-d]pyrimidin-7-yl]-urea] | 113 | 98 | 257 | 18 | –
16 | CC(C)(C)NC(=O)Nc1nc2nc(Nc3ccc(N4CCNCC4)cc3)ncc2cc1Br [Compound 91, 1-[6-Bromo-2-(4-piperazin-1-yl-phenylamino)-pyrido[2,3-d]pyrimidin-7-yl]-3-tert-butyl-urea] | > 5000 | > 5000 | > 5000 | 70 | –
17 | CNC(=O)Nc1nc2nc(Nc3ccc(N4CCNCC4)cc3)ncc2cc1Br [Compound 93, 1-[6-Bromo-2-(4-piperazin-1-yl-phenylamino)-pyrido[2,3-d]pyrimidin-7-yl]-3-methyl-urea] | > 5000 | > 5000 | > 5000 | > 5000 | –
18 | Cc1cc2cnc(Nc3ccc(N4C[C@@H](C)N[C@@H](C)C4)cc3)nc2nc1NC(=O)NC1CCCCC1 [Compound 116, 1-Cyclohexyl-3-{2-[4-(cis-3,5-dimethyl-piperazin-1-yl)-phenylamino]-6-methyl-pyrido[2,3-d]pyrimidin-7-yl}-urea] | > 5000 | 3750 | > 5000 | 313 | –
19 | CC1(C)CN(c2ccc(Nc3ncc4ccc(NC(=O)NC5CCCCC5)nc4n3)cc2)CCN1 [Compound 115, 1-Cyclohexyl-3-{2-[4-(3,3-dimethyl-piperazin-1-yl)-phenylamino]-pyrido[2,3-d]pyrimidin-7-yl}-urea] | 22 | 51 | 94 | 7 | –
20 | Cc1cc2cnc(Nc3ccc(N4CCNCC4)cc3)nc2nc1NC(=O)NC(C)(C)C [Compound 118] | > 5000 | 3800 | > 5000 | 79 | –
21 | C[C@@H]1CN(c2ccc(Nc3ncc4cc(F)c(NC(=O)NC(C)(C)C)nc4n3)cc2)C[C@H](C)N1 [Compound 102, 1-tert-Butyl-3-{2-[4(cis-3,5-dimethyl-piperazin-1-yl)-phenylamino]-6-fluoro-pyrido[2,3-d]pyrimidin-7-yl}-urea] | 3590 | 4500 | 3130 | 165 | –
